This is an account of results in patent publication US20100105729A1, “ARYL-SUBSTITUTED HETEROCYCLIC PDE4 INHIBITORS AS ANTI-INFLAMMATORY AGENTS” (KALYPSYS, INC., priority 2006, published 2010).

As a reminder, the IC50 is the concentration needed to halve the response being measured. One may read the inhibition as how much of the control response was suppressed. Low values mean a weak effect, high ones a strong effect.

One assay relates to recombinant human PDE4. The following applies: reported value; read-out: IC50 with respect to inhibiting recombinant human PDE4; cited from earlier work.
Another assay has as its system PDE4. Put plainly: PDE4 Cellular CNG Assay. It counts as cell-based. Particulars: HEK293 cells stably expressing the CNG channel. From the text: Compounds may be screened for functional potency in in vitro cellular assays for their ability to inhibit the activity of phosphodiesterase (PDE) enzymes. A commercial membrane potential assay, Molecular Device's membrane potential assay kit, was modified and utilized to measure the inhibitory activity of compounds on PDE isoforms in living cells. The cellular assay utilizes genetically engineered cyclic nucleotide-gated (CNG) channels as cyclic-AMP (cAMP) sensors. On binding cAMP these ion channels open, allowing the flow of cations across the plasma membrane. CNG channel activity can be monitored by measuring Ca^2+influx in cell populations. The influx of Ca causes a change in membrane potential that is measured by voltage sensitive dyes. PDE inhibitors prevent the degradation of cAMP that is generated by adenylyl cyclases that are activated upon stimulation of G protein-coupled receptors (GPCR) linked to the cAMP pathway. In brief, Molecular Device's membrane potential dye was added to HEK293 cells stably expressing the CNG channel and incubated for 2 hours at room temperature. Test compounds were then added to the cells and incubated for 15 minutes. A GPCR agonist was then added to the cells to stimulate the cAMP pathway and incubated for 45 minutes. Fluorescent measurements were then conducted with either the Molecular Devices Acquest or Analyst. PDE inhibitors will inhibit the degradation of cAMP and cause an increase in fluorescent signal. Roflumilast and Rolipram are the positive controls used in the assay.

Another assay deals with T1, PDE4B (Homo sapiens, UniProt Q07343).
T1 construct: hexa-histidine (His6) (N); made in house
T1 sequence (Q07343 330-659 limits assumed, species assumed): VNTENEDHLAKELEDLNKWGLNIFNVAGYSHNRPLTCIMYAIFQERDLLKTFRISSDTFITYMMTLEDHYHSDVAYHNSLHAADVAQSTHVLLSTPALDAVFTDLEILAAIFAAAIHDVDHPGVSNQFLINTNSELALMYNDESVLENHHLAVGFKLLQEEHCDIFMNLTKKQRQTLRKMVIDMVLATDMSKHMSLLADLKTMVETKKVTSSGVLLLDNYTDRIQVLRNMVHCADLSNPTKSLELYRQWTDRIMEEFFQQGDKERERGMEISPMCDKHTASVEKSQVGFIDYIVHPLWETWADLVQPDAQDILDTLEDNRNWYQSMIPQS
Kind of assay: PDE4 IMAP Assay. Particulars: catalytic domain of PDE4B, fluorescence polarization. It counts as biochemical. Summed up:
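His-tagged PDE4B catalytic domain was preincubated with compound for 10 min, then given fluorescent cAMP substrate for 2 h at room temperature. IMAP binding reagent was added for 10–30 min to capture the nucleotide monophosphate product, and fluorescence polarization was read.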
(In fluorescence polarisation assays a small probe gives low polarisation when free and higher when bound to something large.)

The structures appear in SMILES notation. Bounds are passed on as bounds.

In the case of `COc1ccc(C2CNC(=O)C2)cc1OC1CCCC1` (centres unmarked) [rolipram], in the assay on recombinant human PDE4, the IC50 was around 200 nM. For the compound `COc1ccc(C2=NN(C(=O)c3cc(OC)c(OC)c(OC)c3)C(c3cccc([N+](=O)[O-])c3)C2)cc1OC` (centres unmarked) [Example 77, (3-(3,4-dimethoxyphenyl)-5-(3-nitrophenyl)-4,5-dihydro-1H-pyrazol-1-yl)(3,4,5-trimethoxyphenyl)methanone], the “PDE4 Cellular CNG Assay Activity at 10 μM” value in the assay on PDE4 was “+ (+ indicates Activity ≧50% at 10 μM)”. Moreover, the inhibition at 10 µM on PDE4B is at least 50%. On the same counts, the results for `COc1ccc(C2=NN(C(=O)c3ccccc3Cl)C(c3ccc(F)cc3)C2)cc1OC` (centres unmarked) [Example 31, (2-chlorophenyl)(3-(3,4-dimethoxyphenyl)-5-(4-fluorophenyl)-4,5-dihydro-1H-pyrazol-1-yl)methanone] are “+ (+ indicates Activity ≧50% at 10 μM)” and at least 50%.
